The record followed here is patent US20230332239A1, “METHODS OF TREATING CANCER” (ASTRAZENECA AB, priority 2019, published 2023).

What all share (format): in vivo, human
The test system of one data set is prostate cancer. Nature of the data set: Progression-free survival of prostate cancer patients in phase 1A study of AZD4635, grouped by group I signature. The protocol:
To derive signatures geared toward adenosine-drive prostate cancers, time-series of samples from 96 patients prostate cancer patients enrolled in the phase 1A study of AZD4635 (NCT02740985) were collected and analyzed for gene expression by using the NanoString nCounter FLEX Analysis System and the commercially available 770-gene, human PanCancer Immune Profiling Panel (NanoString). The time series was up to 120 weeks for some patients. Signatures were tested for their concordance with progression-free survival (PFS), where progression is objective disease progression (by PSA recurrence or RECIST 1.1 criteria), or death by any cause in the absence of progression. (A concordance index of 0.5 represents random chance; a concordance index of 1 represents perfect prediction.) The concordance index, in this context, is a measure of how successful a given signature is in predicting PFS; that is, if stratifying patients into ‘adenosine-low’ and ‘adenosine-high’ groups correlated with the adenosine-high group having a longer median PFS than the adenosine-low group (patients with tumors that are more strongly adenosine drive should benefit more from treatment with the A2AR antagonist AZD4635). The stronger that correlation, the greater the concordance index.

Data set [1] in a line: Phase 1A study NCT02740985: safety, maximum tolerated dose. The following applies: monotherapy, PO daily, patients with treatment refractory solid tumours. The method, then: (§1) The first-in-human trial, NCT02740985, was conducted to assess safety, PK and pharmacodynamic activity of AZD4635 as monotherapy and in combination with durvalumab in patients with treatment refractory solid tumours. Pre-dose and on-treatment tumour biopsies were collected from 7 subjects who were treated with AZD4635 monotherapy at or below the maximum tolerated dose (MTD) of 100 mg PO daily.

Data set [2] relates to adenosine signalling signature (A2AR). Nature of the data set: Phase 1A study NCT02740985: adenosine signalling signature scores in pre-dose and on-treatment tumour biopsies.
Excerpt: We scored transcriptome data with the signature using GSVA (60). This method is robust to outlying genes expressed at different orders of magnitude and generates scores amenable to downstream statistical interpretation. We observe a strong linear correlation between signatures representing immune processes/features and tumour purity in TCGA (see FIG. 7). To account for this bias we adjust the signature scores for tumour purity by fitting a linear regression derived from all samples in TCGA versus tumour purity and then applying the following correction:
Immune cell infiltrates were determined with an SVR approach based on CIBERSORT (36) to define relative immune cell abundance. To study the association of adenosine with CD8^+ T cell infiltration we consider CD8 high tumours to be greater than the median of CD8A expression across all samples. All other cell or cell-state signatures were scored using GSVA. NK cell exhaustion was determined using expression of KIR3DL1, KIR3DL2, IL2RA, IL15RA, HAVCR2 and EOMES. Cytotoxicity was determined using the expression of: NKG7, CST7, PRF1, GZMA, GZMB and IFNG. CD8 Exhaustion was determined using the signature provided in (Danaher et al. 2017). IFNG signalling was determined using the signature presented by (Ayers et al. 2017).
as §1
Total RNA was extracted from tumour tissue macrodissected from […] thick FFPE sections using the miRNeasy FFPE Kit (QIAGEN). RNA integrity and quantity were assessed on the TapeStation 2200 using the RNA ScreenTape System (Agilent). […]
The RNA was subsequently analyzed for gene expression using the NanoString nCounter FLEX Analysis System and the commercially available 770-gene, human PanCancer Immune Profiling Panel (NanoString). […]

Several values for one entry are separate records, joined by “and”; a condition that tells them apart may be missing. Equal values may be shown once.

For the compound `Cc1cc(-c2nnc(N)nc2-c2ccc(F)cc2)cc(Cl)n1` [AZD4635, 6-(2-chloro-6-methylpyridin-4-yl)-5-(4-fluorophenyl)-1,2,4-triazin-3-amine], the “median PFS, adenosine-low group” value in the data set with prostate cancer (p=0.008 vs adenosine-high) amounted to 12 weeks. Besides, the “median PFS, adenosine-high group” value in the data set with prostate cancer (p=0.008 vs adenosine-low) is recorded as 34 weeks. Further, the “maximum tolerated dose (MTD)” value in data set [1] stood at 100 mg. For the same compound, the “patients with reduced adenosine scores who also had increases in gene expression signatures of cytolytic activity and IFNG signalling” value in data set [2] (of the 5 patients with reduced scores, out of 7 treated) was found to be 4 patients. Besides, in data set [2] (solid tumours, AZD4635 monotherapy once daily at or below MTD, on-treatment vs pre-dose biopsy), the “patients with reduced adenosine signalling scores” value is 5 of the 7 and 5 of 7. In addition, the “share of patients with reduced adenosine signalling scores” value in data set [2] (solid tumours, AZD4635 once daily, 7 patients) is listed as 70%.
